Structures can show the parent of a compound that is named as a salt.

The subject of test [1] is slaughterhouse oocytes fertilized with sexed semen. The experiment in a line: In vitro fertilization (IVF) with sexed semen: embryo cleavage and blastocyst formation. Type of test: cell-based, bovine. An excerpt:
IVF Testable Unit Generation Design: This study utilizes sires from two breeds, Holstein and Jersey. The study design includes one ejaculate collection from 10 unique sires to generate sexed semen units in a split batch design with clofilium and a paired control.
Final breed tally of the collections were 7 Holsteins and 3 Jersey sires. Ejaculates selected for use in this trial were processed following standard production procedures outlined in detail below. Insemination doses, freeze canes, and all associated documentation were blind labeled during the incoming quality check. This was to prevent technician bias on quality control assessments after freeze-thaw as well as during the IVF outcome quantitation assessments.
After processing, the sexed semen was packaged and frozen during a regularly scheduled production freeze following standard operating procedures (SOPs). Within one week of unit generation, the outgoing quality control measurements were performed by a trained research technician. Post-thaw motile concentration and the presence/absence of bacterial contamination were completed. Insemination doses had to pass standard production outgoing quality control parameters to be utilized for the IVF trial.
Each facility received the two treatment groups for each individual ejaculate. The two treatments from each split ejaculate were used concurrently to fertilize oocytes from the same pooled batch of slaughterhouse oocytes.
Trained IVF technicians performed the outlined fertilizations. Day 2 cleavage rate, Day 7 and 8 blastocyst rates will be recorded, as well as polyspermy post-fertilization.
Oocyte prep: Four well fertilization plates are prepared by filling all 4 wells with 400 μL of BO-IVF (MOFA Verona, Wis.) and equilibrated in a 37° C. 5% CO2 for at least 1 hour. […]
Semen prep: Three insemination straws per treatment group are thawed at 37° C. for 45 seconds. […] A 5 μL sample aliquot is added to 95 μLs 4% NaCl to immobilize the cells, and cell concentration is quantified using a hemocytometer. Cells with visible membrane damage are not counted towards cell density calculations. […]

In test [2] the test system is sperm cells. The experiment in a line: Sexing cytometer metrics: eligible cells, skew. Particulars: 5 μM, n=10 sires. It counts as cell-based, bovine. As for the experimental part: (§1) Sample Preparation for Sperm Sexing: A stained sample was prepared at room temperature that contained 200 M/mL sperm cells in 0.06 mg/mL Hoechst 33342 diluted to final volume in Stain TALP with Magnetic Beads with (+clofilium) or without (control) such that clofilium would be at a final concentration of 5 μM in the final stained sample volume. The sample was then incubated in a 37° C. water bath for 45 minutes. After 45 minutes Red Stain TALP was added to the stained sample in a 2:1 v/v ratio. The sample+Red TALP was then thoroughly mixed using inversion, filtered using tube top 20 μm Partec filters (Partec#04-0042-2315), and aliquoted into round bottom 5 mL tubes.
Sexing Cytometer Metrics: The stained, filtered sample was then run on proprietary sexing cytometers. The sample throughput was adjusted to 23,000 cells/sec and the detection and kill lasers were focused. To confirm proper laser focus, kill count assessments were performed before collecting sex skewed sample. A successful kill count has a population that is ≥75% dead and ≥95% sliced with at least 200 cells being counted. […] After a successful kill count, a gate was placed to collect the X chromosome cells, which is the cell population with the brighter Hoechst 33342 fluorescence as measured with a 355 nm wavelength excitation laser. […]

The subject of test [3] is sperm cells. Description: Pre-freeze and post-freeze motile cell quantification (CASA). It counts as cell-based, bovine. To be noted: 5 μM, n=10 sires, compared to SOP. Here is the method:
Sex Skewed Sample Collection and Processing: The sample was run to collect between 300 and 400 mL of sex skewed sample, the composition of which is approximately 17% TRIS A (Part 1) buffer, 80% sheath fluid, and 2% cell sample. The sample was collected in 50 mL conical tubes containing 5 mLs of TRIS A (Part 1), and each tube was filled to a max volume of 30 mL before being replaced. After the requisite total volume was collected, sexed sperm was centrifuged at room temperature at 2400×g for 10 minutes. The supernatant was aspirated and discarded to reach a 1 mL pellet volume. 144 μL of TRIS A (Part 1)/GTLS mixture containing 40 μM clofilium or no clofilium (control) was added to each pellet after resuspension. The tubes were then placed in beakers filled with 150 mL of room temperature water, to prevent cold shock, and were then transferred to a 4° C. cold room. […] The concentration of progressively motile cells was determined using the Hamilton Thorne IVOS II with […] […] After which 20 μLs of sample is added to 20 μLs of QC diluent, gently vortexed for 5 seconds, and read on the CASA fluorescent settings described above. The remainder of the straw volume is spread on a blood agar plate and left at 37° C. for 24 hours before bacterial colonies are counted. […]

The test system of another test is sexed semen samples. Description: Cellular function of sexed semen samples (mitochondrial membrane potential, motility). Type of test: cell-based. Particulars: sexed semen samples treated.
Test [4] relates to sperm cells. Description: Staining sperm cells with Hoechst dye before sexing. It counts as cell-based. Particulars: present during staining with Hoechst dye. As for the experimental part: as §1
Sexing Cytometer Metrics: The stained, filtered sample was then run on proprietary sexing cytometers. The sample throughput was adjusted to 23,000 cells/sec and the detection and kill lasers were focused. To confirm proper laser focus, kill count assessments were performed before collecting sex skewed sample. A successful kill count has a population that is ≥75% dead and ≥95% sliced with at least 200 cells being counted. If an instrument could not achieve the above metrics, the instrument was not used to collect sex skewed semen. After a successful kill count, a gate was placed to collect the X chromosome cells, which is the cell population with the brighter Hoechst 33342 fluorescence as measured with a 355 nm wavelength excitation laser. Cytometer performance metrics were collected 15 minutes after instrument set up, and 15 minutes after the placement of the last sample collection tube, including the height of the Y-peak, the height of the X-peak, the height of the trough from the histogram of events per emitted fluorescent intensity, gated %, and dead %.

Take `CCCCCCC[N+](CC)(CC)CCCCc1ccc(Cl)cc1` [clofilium tosylate, N-[4-(4-chlorophenyl)butyl]-N,N-diethylheptan-1-aminium]: in test [1] (5 μM throughout the sexing process, N=2 sires, normalized to the control process, FIG. 3A), the “percentage of normalized cleaved embryos at day 2” value is “improvement”. Moreover, the “percentage of day 7 blastocysts” value in test [1] (5 μM throughout the sexing process, N=2 sires, normalized to the control process, FIG. 3B) is recorded as “improvement”. For the same compound, the “fertility of semen, as assessed by embryo cleavage and blastocyst formation post-IVF” value in test [1] (included in the sexing process) is on record as “improves fertility”. In addition, the “Skew (percentage of X-chromosome bearing sperm cells)” value in the test with sperm cells [2] is listed as “remains unaffected”. Moreover, in the test with sperm cells [2] (compared to SOP at start and end of the collection process, FIG. 4), the “percentage of eligible cells (live, sexed X chromosome bearing cells)” value is reported as “increased eligible percent”. The “number of straws obtained from a single sample catch tube (pre-freeze motile cell quantification)” value in the test on sperm cells [3] (post instrument processing, FIG. 5) is “improvement”. In addition, the “motile cells (in millions) per insemination dose” value with sperm cells [3] (post-freeze, FIGS. 6A, 6B) is recorded as “more motile cells”. Besides, in the test with sexed semen samples, the “cellular function, as measured by mitochondrial membrane potential” value is “increased cellular function” and the “cellular function, as measured by motility” value is given as “increased cellular function”. For the same compound, in the test with sperm cells [4], the “eligibility (number of cells eligible for sexing)” value was “increase eligibility”; the “resolution (separation of X- and Y-chromosome cell peaks in a histogram)” value is on record as “increase resolution”; the sex skew result is “increase”; the “time required to achieve staining saturation” value is “reduce the time”.

The record behind these values is US20230337658A1, “COMPOSITIONS AND METHODS FOR ENHANCING SPERM CELL QUALITY” (ABS Global, Inc., priority 2022, published 2023).
